Measured values as given in patent US10869931B2, “Polyethylene glycol-modified angiogenesis inhibitor HM-1 and application thereof” (NANJING ANJI BIOLOGICAL TECHNOLOGY CO.,LTD, priority 2016, dated 2020).
Marks after values point to notes of the source that are not given here. Where no end group is shown, it is not given here.

Key:
[1] = system: Colorectal cancer tumor cells; assay: MTT proliferation inhibition, colorectal cancer cells; assay type: cell-based, human; set-up: concentration or dose not given beside the values; details: 48 h
Method: (§1) The activity of mPEG-HM-1 to inhibit the growth of various tumor cells was examined by MTT assay. The tumor cells were cultured to a concentration of 90% or more in a 37° C., 5% CO2 incubator and collected by trypsinization. The cells were resuspended in the culture medium and counted under a microscope to adjust the cell concentration to 2×10^4 cells/mL, the cell suspension was inoculated into a 96-well plate at 100 μL/well and incubated overnight at 37° C. in a 5% CO2 incubator. mPEG-HM-1 was diluted with the culture solution to each predetermined concentration. Docetaxel is diluted to the final concentration with the culture medium. After the cells were fully attached, each dilution was added to a 96-well plate (100 μL/well). The mPEG-HM-1 dilution was added as a drug-administered group, and docetaxel was added as a positive control group, and a culture solution without any drug was used as a negative control group. Incubate for 48 h at 37° C. in a 5% CO2 incubator. 5 mg/mL of MTT was added to a 96-well plate at 20 μL per well, and incubation was continued for 4 hours. The medium was aspirated, dissolved in 150 μL of DMSO per well, and gently mixed by shaking for 10 min. The absorbance was measured at a measurement wavelength of 570 nm and a reference wavelength of 630 nm using a microplate reader, and the rate of growth inhibition (proliferation inhibition, PI) was calculated. The formula is as follows: PI (%)=1−administration group/negative group
(§2) The test was repeated 3 times independently, and the results obtained by the test were expressed as mean±SD, and the test results are shown in Table 15 to Table 18.

[2] = system: Ovarian cancer tumor cells; assay: MTT proliferation inhibition, ovarian cancer cells; assay type: cell-based, human; set-up: concentration or dose not given beside the values; details: 48 h
Method: as §1, §2

Hemangioma tumor cells = assay: MTT proliferation inhibition, hemangioma cells; assay type: cell-based, human; set-up: concentration or dose not given beside the values; details: 48 h
Method: as §1, §2

mouse spleen lymphocytes = assay: ConA-stimulated mouse spleen lymphocyte proliferation (MTT); assay type: cell-based; details: ConA 5 μg/mL, 48 h
Method: Tris-NH4Cl was used to break the red blood cells, and the cells were allowed to stand in an ice water bath for 4 min, centrifuged (1000 rpm×5 min), the supernatant was discarded, and the cells were washed twice with sterile PBS. Finally, cells were suspended in RPMI 1640 medium (5 mL) supplemented with 10% calf serum, counted, adjusted to a cell concentration of 5×10^6/mL, and cultured in a 96-well culture plate The test group consisted of blank control group, concanavalin A (ConA) group, dexamethasone (Dex) group (0.02 mg/mL) and mPEG-HM-1 group. […] The cells were cultured in a 37° C. cell culture chamber for 48 h. After the completion of the culture, 20 μL of MTT was added to each well, and the culture was continued for 4 h. Finally, all the solutions in each well were discarded, 100 μL of DMSO was added to each well, and the mixture was shaken and detected by a microplate reader OD value at 570 nm, 5 parallels per hole.

[3] = system: corneal neovascularization in BALB/c mice; assay: Alkali-burn corneal neovascularization in BALB/c mice (CD31 microvessel density); assay type: in vivo, mouse; details: for Inhibition rate: corneal microvessel density vs control; for Inhibition rate / MVD: day 14 after alkali burn, intravitreal once a day for 1 week; for MVD: microvessel density (CD31) of cornea
From the text: (1) Preparation of corneal neovascularization model induced by alkali burn in BALB/c mice: mice were randomly grouped and labeled as mPEG-HM-1 experimental group and control group, 5 […] in each group, respectively, was given mPEG-HM-1 and saline by Intravitreal injection after alkali burn, once a day for 1 week. The inflammatory reaction and neovascularization of the cornea were observed under slit lamp microscope at 1 d, 7 d, and 14 d after alkali burn. On the 14th day after alkali burn, the corneal neovascularization was recorded under the slit lamp microscope in the anterior segment of the eye. All the mice were euthanized by cervical dislocation and the eyeballs were removed, washed with saline to rid of blood, and was fixed in 4% paraformaldehyde for 1.5 h, dehydrated in PBS containing 30% sucrose overnight, embedded in OCT frozen section embedding agent, stored in −80° C. refrigerator, frozen section 8 μm, and underwent immunocytochemical detection of CD31 expression. (2) Quantitative measurement of corneal tissue microvessel density: Microvessel density (MVD) is an indicator for evaluating angiogenesis. Vascular endothelial cells were labeled with anti-CD31 antibody by immunohistochemistry, and the number of microvessels per unit area was counted to measure the degree of neovascularization. Standards for counting microvessels: Microscopically, the endothelial cells or cell clusters that are clearly demarcated from adjacent tissues in the corneal tissue and stained brown or brown are counted in the neovascularization. The number of new blood vessels in the whole section was counted under a 10×20 microscope. After the corneal tissue was photographed, the entire corneal tissue area was calculated by image processing software Image J, and the neovascular density of the whole section was determined. The test was repeated 3 times independently. The results obtained by the test were expressed as mean±SD, and a statistical T test was performed. *P<0.05 was a significant difference, and **P<0.01 was a very significant difference.

[4] = system: choroidal neovascularization in BN rats; assay: Laser-induced choroidal neovascularization in BN rats (FFA); assay type: in vivo, rat
Method: 6-8 weeks old male BN rats were anesthetized with 846 compound anesthetic 0.5 mL/kg administered intraperitoneally. The eye drops of compound tropamide eyes were used 5 minutes before laser photocoagulation, and the pupils of both eyes were fully scattered. Fix animals, with the aid of −53.00 D contact lens, around the optic disc and along the same distance from the optic disc 2PD, the laser beam photocoagulation were performed to make a total of 8 photo-condensation spots, with laser wavelength of 647.1 nm, power of 350 mW, photocoagulation spot diameter and time were 50 μm and 0.05 s, respectively. Immediately after photocoagulation, fundus photography was performed. FFA, histopathology and transmission electron microscopy were performed at 3, 7, 14, 21, and 28 days after photocoagulation.
It was confirmed by fundus photography and FFA examination that the fluorescein leakage of photocoagulation peaked on the 21st day after photocoagulation, and histopathological examination was performed at the same time. […] A large number of neovascular vessels were seen, and red blood cells were visible in the lumen. Microscopically, capillary cells in the choroidal melanocytes were cohesively altered and endothelial cells aggregated.
Rats that were successfully modeled were randomly divided into groups of 5 rats each. They were labeled as negative control group, mPEG-SC-HM-1 treatment group, mPEG2-NHS-HM-1 treatment group, mPEG-ALD-HM-1 treatment group and mPEG-bALD-HM-1 treatment group, respectively. Saline, mPEG-HM-1 (see Table 53 for dosing) was administered intravitreally, once daily for 1 week. FFA examinations were performed 3 days, 7 days, 14 days, and 28 days after administration of the modified peptides.

Substance: mPEG2-NHS5k-Arg-Gly-Ala-Asp-Arg-Ala-Gly-Gly-Gly-Gly-Arg-Gly-Asp ({mPEG2‑NHS 5 kDa}-RGADRAGGGGRGD) [mPEG2-NHS5k-HM-1]
- rate of growth inhibition [1]: 52.37 ± 12.24%
- rate of growth inhibition [2]: 56.88 ± 21.07%
- rate of growth inhibition (Hemangioma tumor cells): 42.78 ± 12.50%
- A570 nm/A630 nm (mouse spleen lymphocytes; 5 μg/mL): 0.6304 ± 0.0983
- Inhibition Rate of spleen lymphocyte proliferation (mouse spleen lymphocytes; 5 μg/mL): 8.96%
- A570 nm/A630 nm (mouse spleen lymphocytes; 10 μg/mL): 0.5624 ± 0.1098
- Inhibition Rate of spleen lymphocyte proliferation (mouse spleen lymphocytes; 10 μg/mL): 18.78%
- A570 nm/A630 nm (mouse spleen lymphocytes; 20 μg/mL): 0.4873 ± 0.1126
- Inhibition Rate of spleen lymphocyte proliferation (mouse spleen lymphocytes; 20 μg/mL): 29.62%
- Inhibition rate [3]: 40.13%
- MVD [3]: 39.95 ± 3.985*
- CNV Incidence rate ([4]; Day 3 after administration, 25 μg intravitreally once daily for 1 week (Table 53)): 56.12%
- leakage Spots # ([4]; Day 3 after administration, 25 μg intravitreally once daily for 1 week (Table 53), total spots 290-296 by table): 165
- CNV Incidence rate ([4]; Day 7, 25 μg intravitreally once daily for 1 week (Table 53)): 55.49%
- leakage Spots # ([4]; Day 7, 25 μg intravitreally once daily for 1 week (Table 53), total spots 182-188 by table): 101
- CNV Incidence rate ([4]; Day 14, 25 μg intravitreally once daily for 1 week (Table 53)): 45.99%
- leakage Spots # ([4]; Day 14, 25 μg intravitreally once daily for 1 week (Table 53), total spots 132-138 by table): 63
- CNV Incidence rate ([4]; Day 28, 25 μg intravitreally once daily for 1 week (Table 53)): 48.53%
- leakage Spots # ([4]; Day 28, 25 μg intravitreally once daily for 1 week (Table 53), total spots 67-71 by table): 33

Substance: mPEG2-NHS10k-Arg-Gly-Ala-Asp-Arg-Ala-Gly-Gly-Gly-Gly-Arg-Gly-Asp ({mPEG2‑NHS 10 kDa}-RGADRAGGGGRGD) [mPEG2-NHS10k-HM-1]
- rate of growth inhibition [1]: 55.78 ± 15.77%
- rate of growth inhibition [2]: 60.69 ± 21.24%
- rate of growth inhibition (Hemangioma tumor cells): 48.81 ± 12.46%
- A570 nm/A630 nm (mouse spleen lymphocytes; 10 μg/mL): 0.6239 ± 0.1086
- Inhibition Rate of spleen lymphocyte proliferation (mouse spleen lymphocytes; 10 μg/mL): 9.90%
- A570 nm/A630 nm (mouse spleen lymphocytes; 20 μg/mL): 0.5533 ± 0.1067
- Inhibition Rate of spleen lymphocyte proliferation (mouse spleen lymphocytes; 20 μg/mL): 20.09%
- A570 nm/A630 nm (mouse spleen lymphocytes; 40 μg/mL): 0.4747 ± 0.1174
- Inhibition Rate of spleen lymphocyte proliferation (mouse spleen lymphocytes; 40 μg/mL): 31.44%
- inhibition rate of corneal neovascularization ([3]; BALB/c mice, alkali burn, intravitreal injection once a day for 1 week): 50.07%
- Inhibition rate [3]: 50.07%
- MVD [3]: 33.32 ± 3.871**
- incidence of CNV ([4]; BN rats, 28 days after administration, intravitreal once daily for 1 week): 39.71%
- CNV Incidence rate ([4]; Day 3 after administration, 50 μg intravitreally once daily for 1 week (Table 53)): 50.34%
- leakage Spots # ([4]; Day 3 after administration, 50 μg intravitreally once daily for 1 week (Table 53), total spots 290-296 by table): 148
- CNV Incidence rate ([4]; Day 7, 50 μg intravitreally once daily for 1 week (Table 53)): 48.35%
- leakage Spots # ([4]; Day 7, 50 μg intravitreally once daily for 1 week (Table 53), total spots 182-188 by table): 88
- CNV Incidence rate ([4]; Day 14, 50 μg intravitreally once daily for 1 week (Table 53)): 43.07%
- leakage Spots # ([4]; Day 14, 50 μg intravitreally once daily for 1 week (Table 53), total spots 132-138 by table): 59
- CNV Incidence rate ([4]; Day 28, 50 μg intravitreally once daily for 1 week (Table 53)): 39.71%
- leakage Spots # ([4]; Day 28, 50 μg intravitreally once daily for 1 week (Table 53), total spots 67-71 by table): 27

Substance: mPEG2-NHS20k-Arg-Gly-Ala-Asp-Arg-Ala-Gly-Gly-Gly-Gly-Arg-Gly-Asp ({mPEG2‑NHS 20 kDa}-RGADRAGGGGRGD) [mPEG2-NHS20k-HM-1]
- rate of growth inhibition [1]: 58.16 ± 20.36%
- rate of growth inhibition [2]: 63.55 ± 19.60%
- rate of growth inhibition (Hemangioma tumor cells): 55.38 ± 16.23%
- A570 nm/A630 nm (mouse spleen lymphocytes; 20 μg/mL): 0.6082 ± 0.0990
- Inhibition Rate of spleen lymphocyte proliferation (mouse spleen lymphocytes; 20 μg/mL): 12.16%
- A570 nm/A630 nm (mouse spleen lymphocytes; 40 μg/mL): 0.4879 ± 0.1156
- Inhibition Rate of spleen lymphocyte proliferation (mouse spleen lymphocytes; 40 μg/mL): 29.53%
- A570 nm/A630 nm (mouse spleen lymphocytes; 80 μg/mL): 0.4375 ± 0.1095
- Inhibition Rate of spleen lymphocyte proliferation (mouse spleen lymphocytes; 80 μg/mL): 36.82%
- Inhibition rate [3]: 42.37%
- MVD [3]: 38.46 ± 4.528**
- CNV Incidence rate ([4]; Day 3 after administration, 100 μg intravitreally once daily for 1 week (Table 53)): 52.72%
- leakage Spots # ([4]; Day 3 after administration, 100 μg intravitreally once daily for 1 week (Table 53), total spots 290-296 by table): 155
- CNV Incidence rate ([4]; Day 7, 100 μg intravitreally once daily for 1 week (Table 53)): 52.20%
- leakage Spots # ([4]; Day 7, 100 μg intravitreally once daily for 1 week (Table 53), total spots 182-188 by table): 95
- CNV Incidence rate ([4]; Day 14, 100 μg intravitreally once daily for 1 week (Table 53)): 45.99%
- leakage Spots # ([4]; Day 14, 100 μg intravitreally once daily for 1 week (Table 53), total spots 132-138 by table): 63
- CNV Incidence rate ([4]; Day 28, 100 μg intravitreally once daily for 1 week (Table 53)): 42.65%
- leakage Spots # ([4]; Day 28, 100 μg intravitreally once daily for 1 week (Table 53), total spots 67-71 by table): 29
